Test results from US7605168B2 (Plexxikon, Inc., priority 2004, dated 2009).

Assays:
[1] = biological target: T1, PDE4B: catalytic domain of human PDE4B from S152-S528 (Homo sapiens, UniProt Q07343); test: PDE4 IC50 determination by Scintillation Proximity Assay (SPA), PDE4B catalytic domain; format: biochemical; settings: [3H]cAMP SPA, 30 min at 30° C.
T1 construct: The catalytic domain of human PDE4B from S152-S528; His6 (N, cleaved yes); thrombin cleavage site (N, cleaved yes); made in house; host or cells: E. coli BL21 (DE3) RIL
T1 sequence (Q07343 324-700): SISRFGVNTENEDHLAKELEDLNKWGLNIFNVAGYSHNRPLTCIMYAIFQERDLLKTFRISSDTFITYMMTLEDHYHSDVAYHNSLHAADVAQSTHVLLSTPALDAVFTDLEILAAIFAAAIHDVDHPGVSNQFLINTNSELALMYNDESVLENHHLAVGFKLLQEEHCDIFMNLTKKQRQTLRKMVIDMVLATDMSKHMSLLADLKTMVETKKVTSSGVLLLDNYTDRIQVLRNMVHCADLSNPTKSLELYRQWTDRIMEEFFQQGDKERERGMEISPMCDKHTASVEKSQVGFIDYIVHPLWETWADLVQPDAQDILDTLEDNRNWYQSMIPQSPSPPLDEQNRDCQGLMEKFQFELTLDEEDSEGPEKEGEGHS
Summary of the method: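 Human PDE4B catalytic domain (80 ng/ml) hydrolysed [3H]cAMP in 50 mM Tris pH 7.5, 8.3 mM MgCl, 1.7 mM EGTA, 0.01% BSA for 30 min at 30 °C. Reaction was stopped with yttrium silicate SPA beads in 18 mM ZnSO4, and bound [3H]AMP was counted by scintillation. IC50 came from non-linear regression.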

[2] = biological target: T2, PDE4B2: full-length human PDE4B2 isozyme (Homo sapiens, UniProt Q07343); test: PDE4 IC50 determination by Scintillation Proximity Assay (SPA), full-length PDE4B2; format: biochemical; settings: cell lysate, [3H]cAMP SPA
T2 construct: made in house; host or cells: baculovirus infected insect cells (pFastBacHT)
T2 sequence (Q07343 with tags, fused parts or gaps isoform Q07343-2): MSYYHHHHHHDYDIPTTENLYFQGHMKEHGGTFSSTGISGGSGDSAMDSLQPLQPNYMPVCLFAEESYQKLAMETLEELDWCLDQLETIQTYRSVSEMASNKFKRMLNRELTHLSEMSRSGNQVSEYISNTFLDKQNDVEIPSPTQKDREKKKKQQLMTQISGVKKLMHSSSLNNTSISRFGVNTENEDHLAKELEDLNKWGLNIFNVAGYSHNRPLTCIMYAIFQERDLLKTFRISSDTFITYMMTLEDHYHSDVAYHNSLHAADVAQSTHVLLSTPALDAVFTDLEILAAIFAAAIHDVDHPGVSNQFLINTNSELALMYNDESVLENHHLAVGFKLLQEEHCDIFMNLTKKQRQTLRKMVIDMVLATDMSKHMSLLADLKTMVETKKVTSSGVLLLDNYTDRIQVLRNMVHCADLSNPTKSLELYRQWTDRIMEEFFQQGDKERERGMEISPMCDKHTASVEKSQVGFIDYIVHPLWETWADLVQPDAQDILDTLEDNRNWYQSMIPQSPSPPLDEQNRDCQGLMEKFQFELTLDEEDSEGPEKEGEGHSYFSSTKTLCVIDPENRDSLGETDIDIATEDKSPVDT
Summary of the method: (§1)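 Unpurified enzyme from cell lysates (PDE4B2 2.5 μl, PDE4D5 0.083 μl of 50% glycerol stock/ml) hydrolysing [3H]cAMP in 50 mM Tris pH 7.5, 8.3 mM MgCl, 1.7 mM EGTA, 0.01% BSA, 30 min at 30 °C. Stopped with yttrium silicate SPA beads in 18 mM ZnSO4; bead-bound [3H]AMP counted. IC50 by non-linear regression.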

[3] = biological target: T3, PDE4D5: full-length human PDE4D5 isozyme (Homo sapiens, UniProt Q08499); test: PDE4 IC50 determination by Scintillation Proximity Assay (SPA), full-length PDE4D5; format: biochemical; settings: cell lysate, [3H]cAMP SPA
T3 construct: made in house; host or cells: baculovirus infected insect cells (pFastBacHT)
T3 sequence (Q08499 with tags, fused parts or gaps isoform Q08499-6): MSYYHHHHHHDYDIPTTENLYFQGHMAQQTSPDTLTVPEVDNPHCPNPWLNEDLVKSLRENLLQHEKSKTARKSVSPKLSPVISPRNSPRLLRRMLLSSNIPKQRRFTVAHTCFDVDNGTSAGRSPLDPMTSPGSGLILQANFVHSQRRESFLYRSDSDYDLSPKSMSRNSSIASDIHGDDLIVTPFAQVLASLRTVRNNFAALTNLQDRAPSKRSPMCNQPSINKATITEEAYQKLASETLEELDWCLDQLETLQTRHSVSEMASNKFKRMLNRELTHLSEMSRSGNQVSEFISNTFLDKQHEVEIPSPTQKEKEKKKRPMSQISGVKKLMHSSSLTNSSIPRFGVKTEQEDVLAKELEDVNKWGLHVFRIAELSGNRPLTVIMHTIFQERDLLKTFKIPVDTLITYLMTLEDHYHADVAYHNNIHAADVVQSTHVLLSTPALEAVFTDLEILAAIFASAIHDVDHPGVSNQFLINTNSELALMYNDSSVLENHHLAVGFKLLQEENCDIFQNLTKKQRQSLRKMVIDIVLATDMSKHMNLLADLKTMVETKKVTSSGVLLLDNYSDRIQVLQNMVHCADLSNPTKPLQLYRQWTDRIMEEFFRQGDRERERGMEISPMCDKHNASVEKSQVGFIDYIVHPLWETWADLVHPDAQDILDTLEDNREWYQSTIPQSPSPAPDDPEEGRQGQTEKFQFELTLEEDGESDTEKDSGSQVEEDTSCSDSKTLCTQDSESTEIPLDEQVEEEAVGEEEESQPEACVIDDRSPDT
Summary of the method: as §1

[4] = system: TNF-α release from whole blood cultures stimulated with LPS; test: IC50 by TNF alpha production upon stimulation of whole blood cultures with LPS; format: cell-based; settings: human whole blood (buffy coat) culture, 100 ng/ml LPS, 4 hours; read-out: h TNFα IC50
Procedure: Compounds were assayed to generate IC50 numbers based on the inhibition of TNF-α release from whole blood cultures, using the following assay protocol (see Table 5 for compounds tested and results). Inhibition of PDE4B results in the inhibition of TNF-α release by whole blood cultures stimulated with lipopolysaccharide (LPS). The measurement of TNF-α release was used to assess compounds as PDE4B inhibitors.
Compounds were provided in DMSO at 20 mM and 2 μl per well was added to one row of a dilution plate. Added 98 μl of RPMI 1640 media with 2.5% heat inactivated FBS to each well containing compound. The same media with 2% DMSO was prepared and 60 μl was added to each of the empty wells in the dilution plate. The compound was serially diluted 1:3 (30 μl to 60 μl of media) for a total of 8 concentrations per compound. Wells were also prepared with 50 μM roflumilast and piclamilast as 100% inhibition controls, and 2% DMSO in media was used as 0% inhibition control. A 20 μl aliquot of each sample was transferred to an assay plate in duplicate.
Human buffy coat was obtained from the Stanford Medical School Blood Center and diluted with 7 volumes of RPMI 1640 media with 1% penicillin/streptomycin and 2.5% heat inactivated FBS. A 160 μl aliquot of the diluted blood was added to each well of the assay plates, mixed and incubated for 1 hour at 37° C. in 5% CO2. LPS (Sigma catalog number L2637) that had been diluted to 1 mg/ml in PBS and stored as 20 μl aliquots at −20° C. was thawed and diluted 1000× to 1 μg/ml. A 20 μl aliquot of this was added to each sample (final concentration 100 ng/ml LPS) after the 1 hour incubation. A background sample was prepared without addition of LPS as well. The samples were mixed on a shaker for one minute at 900 RPM and incubated for 4 hours at 37° C. in 5% CO2. The plates were then put on a shaker for one minute at 900 RPM, followed by centrifuging at 100×g for 10 minutes, deceleration setting of 5. The top 75 μl of supernatant was carefully pipetted to a new plate and frozen at −20° C.
A 50 μl aliquot of incubation buffer (Biosource International Immunoassay Kit:Human TNF-α catalog number KHC3011) was added to each well of a plate coated with monoclonal antibody specific for hTNF-α (Biosource kit). The supernatant blood samples were thawed and a 50 μl aliquot along with 50 μl of diluent buffer (Biosource kit) were added to incubation buffer and the samples were incubated for 2 hours at room temperature. The samples were washed 4 times with 300 μl/well wash buffer (Biosource kit). A 100 μl aliquot of biotinylated anti-TNFalpha (Biosource kit) was added and the samples incubated for 1 hour at room temperature. The samples were washed 4 times with 300 μl/well wash buffer. A 100 μl aliquot of Streptavidin-HRP solution (BioSource kit) was added and the samples incubated for 30 minutes at room temperature. The samples were washed 4 times with 300 μl/well wash buffer. A 100 μl aliquot of Chromagen (Biosource kit) was added and the samples incubated in the dark for 30 minutes. A 100 μl aliquot of stop solution (2N H2SO4) was added to each sample and samples were read at 450 nm on a WallacVictor for 0.1 sec/well.

SMILES	IC50 [1]	IC50 [2]	IC50 [3]	IC50 [4]
COc1ccc(-c2cn(C(=O)c3ccccc3OC)c3ncccc23)cc1OC [Compound 68, [3-(3,4-Dimethoxy-phenyl)-pyrrolo[2,3-b]pyridin-1-yl]-(2-methoxyphenyl)-methanone]	< 10 µM	< 10 µM	< 10 µM	≤ 10 µM
COc1ccc(-c2cn(S(=O)(=O)c3ccc(-c4cnco4)cc3)c3ncccc23)cc1OC [Compound 70, 3-(3,4-Dimethoxy-phenyl)-1-(4-oxazol-5-yl-benzenesulfonyl)-1H-pyrrolo[2,3-b]pyridine]	< 10 µM	< 10 µM	< 10 µM	≤ 10 µM
COc1ccc(-c2cn(S(=O)(=O)c3cccc(-c4cnco4)c3)c3ncccc23)cc1OC [Compound 72, 3-(3,4-Dimethoxy-phenyl)-1-(3-oxazol-5-yl-benzenesulfonyl)-1H-pyrrolo[2,3-b]pyridine]	< 10 µM	< 10 µM	< 10 µM	≤ 10 µM
COc1ccc(-c2cn(S(=O)(=O)c3ccc(-c4nnc(C)o4)cc3)c3ncccc23)cc1OC [Compound 73, 3-(3,4-Dimethoxy-phenyl)-1-[4-(5-methyl-[1,3,4]oxadiazol-2-yl)-benzenesulfonyl]-1H-pyrrolo[2,3-b]pyridine]	< 10 µM	< 10 µM	< 10 µM	≤ 10 µM
COc1ccc(-c2cn(Cc3ccccc3CS(=O)(=O)c3ccccc3)c3ncccc23)cc1OC [Compound 74, 1-(2-Benzenesulfonylmethyl-benzyl)-3-(3,4-dimethoxy-phenyl)-1H-pyrrolo[2,3-b]pyridine]	< 10 µM	< 10 µM	< 10 µM	≤ 10 µM
COc1ccc(-c2cn(Cc3ccccc3)c3ncccc23)cc1OC [Compound 75, 1-Benzyl-3-(3,4-dimethoxy-phenyl)-1H-pyrrolo[2,3-b]pyridine]	< 10 µM	< 10 µM	< 10 µM	≤ 10 µM
COc1ccc(-c2cn(Cc3c(C)ccc4ccccc34)c3ncccc23)cc1OC [Compound 76, 3-(3,4-Dimethoxy-phenyl)-1-(2-methyl-naphthalen-1-ylmethyl)-1H-pyrrolo[2,3-b]pyridine]	< 10 µM	< 10 µM	< 10 µM	≤ 10 µM
COc1ccc(-c2cn(Cc3ccc(C#N)cc3)c3ncccc23)cc1OC [Compound 77, 4-[3-(3,4-Dimethoxy-phenyl)-pyrrolo[2,3-b]pyridin-1-ylmethyl]-benzonitrile]	< 10 µM	< 10 µM	< 10 µM	≤ 10 µM
COc1ccc(-c2cn(Cc3ccccc3-c3ccccc3)c3ncccc23)cc1OC [Compound 78, 1-Biphenyl-2-ylmethyl-3-(3,4-dimethoxy-phenyl)-1H-pyrrolo[2,3-b]pyridine]	< 10 µM	< 10 µM	< 10 µM	≤ 10 µM
COc1ccc(-c2cn(Cc3cccc(C(F)(F)F)c3)c3ncccc23)cc1OC [Compound 79, 3-(3,4-Dimethoxy-phenyl)-1-(3-trifluoromethyl-benzyl)-1H-pyrrolo[2,3-b]pyridine]	< 10 µM	< 10 µM	< 10 µM	≤ 10 µM
CCOc1ccc2ccccc2c1C(=O)n1ccc2cc(-c3ccc(OC)c(OC)c3)cnc21 [Compound 80, [5-(3,4-Dimethoxy-phenyl)-pyrrolo[2,3-b]pyridin-1-yl]-(2-ethoxy-naphthalen-1-yl)-methanone]	< 10 µM	< 10 µM	< 10 µM	> 10 µM
COc1ccc(-c2cnc3[nH]ccc3c2)cc1OC [Compound 82, 5-(3,4-Dimethoxy-phenyl)-1H-pyrrolo[2,3-b]pyridine]	< 10 µM	< 10 µM	< 10 µM	≤ 10 µM
COc1ccc(-c2cn(S(=O)(=O)c3csc4ccccc34)c3ncccc23)cc1OC [Compound 91, 1-(Benzo[b]thiophene-3-sulfonyl)-3-(3,4-dimethoxy-phenyl)-1H-pyrrolo[2,3-b]pyridine]	< 10 µM	< 10 µM	< 10 µM	> 10 µM
COc1ccc(-c2cn(C(=O)c3ccc(C)c4ccccc34)c3ncccc23)cc1OC [Compound 114, [3-(3,4-Dimethoxy-phenyl)-pyrrolo[2,3-b]pyridin-1-yl]-(4-methyl-naphthalen-1-yl)-methanone]	< 10 µM	< 10 µM	< 10 µM	≤ 10 µM
COc1ccc(-c2cn(C(=O)c3c(-c4ccccc4)cnc4ccccc34)c3ncccc23)cc1OC [Compound 117, [3-(3,4-Dimethoxy-phenyl)-pyrrolo[2,3-b]pyridin-1-yl]-(3-phenyl-quinolin-4-yl)-methanone]	< 10 µM	< 10 µM	< 10 µM	> 10 µM
COc1ccc(-c2ccnc3c2ccn3S(=O)(=O)Cc2ccccc2)cc1OC [Compound 127, 4-(3,4-Dimethoxy-phenyl)-1-phenylmethanesulfonyl-1H-pyrrolo[2,3-b]pyridine]	< 10 µM	< 10 µM	< 10 µM	≤ 10 µM
